Measured values: patent publication US20230303581A1, “ORALLY BIOAVAILABLE, BRAIN-PENETRANT COMPOUND WITH SELECTIVITY FOR THE CANNABINOID TYPE 2 RECEPTOR WITH POTENTIAL USE TOWARDS VISCERAL PAIN MANAGEMENT AND NEURODEGENERATIVE DISORDERS” (University of Mississippi, priority 2022, published 2023)

Columns and labels:
human CB1 receptors = human CB1 receptors (Homo sapiens (Human), UniProt P21554); assay: Cannabinoid receptor binding (displacement) assay, CB1; conditions: 10 μM compound
Method: (§1) The affinities of the compounds for CB1 and CB2 receptors were examined using displacement assays, as previously described. Briefly, cell membranes from CHO cells expressing human CB1 or human CB2 receptors were isolated using differential centrifugation. Test compounds reconstituted in DMSO and were incubated with the isolated membrane in binding buffer (50 mM Tris-HCl, 1 mM EDTA, 3 mM MgCl2, 5 mg/mL BSA, pH 7.4) along with 2.5 nM [^3H]CP-55,940. Total binding was assessed in the presence of equal concentration of DMSO, while non-specific binding was determined in the presence of 10 μM CP-55,940, and background binding was determined in wells lacking membrane. Following incubation at 30° C. for 60 min, the binding reactions were terminated by vacuum filtration through Whatman GF/C filters. The filters were then washed twice with ice-cold buffer (50 mM Tris-HCl, 1 mg/mL BSA). Liquid scintillation cocktail was added to each well and the total tritiated counts per minute were analyzed using a TopCount scintillation counter. Background counts were subtracted from all wells and the percent displacement from total binding was calculated.
(§2) The compounds were initially screened at 10 μM concentrations. If they produced at least ±30% displacement of the radioligand, then full competition curves were constructed. Ki values were calculated using GraphPad Prism (San Diego, CA, USA) and Kd values determined using a 1 site fit. All assays were run in technical and biological replicates so that the n=5-6. PK Evaluation in CD-1 Mice
(§3) The CB1/CB2 receptor binding activities of analogs 4a-4q were assessed via radioactivity-based competitive binding assays using [^3H]CP55,940, an extensively studied radioligand that is frequently used for cannabinoid assays. […] In preliminary screening, all 17 synthetic PBD compounds (4a-4q) were subjected to in vitro CB1 and CB2 binding assays at a single concentration of 10 μM. […] Therefore, the most promising ligands (4k and 4q) were selected for assessment in full competition curves against CB1 and CB2.

human CB2 receptors = human CB2 receptors (Homo sapiens (Human), UniProt P34972); assay: Cannabinoid receptor binding (displacement) assay, CB2; conditions: 10 μM compound
Method: as §1, §2, §3

mice [1] = assay: Acetic acid-induced writhing test; format: in vivo; conditions: oxycodone 3 mg/kg, compound 4k 5 mg/kg, versus vehicle
From the text: Acetic acid-induced writhing is widely used for assessing analgesic effects against inflammatory pain of peripheral origin.

mice [2] = assay: Conditioned place preference test; format: in vivo; conditions: FIG. 4
From the text: Conditioned place preference testing is used to assess a compound's rewarding effects in order to gauge potential abuse liability. Mice are “conditioned” to associate distinctly lighted/colored/textured chambers with a rewarding drug (e.g., opioid) or no drug. If the mice sense a rewarding effect of the drug, they will prefer to occupy the chamber associated with that drug. FIG. 4 presents the results of a conditioned place preference test for 3 groups of mice (i.e., vehicle, oxycodone treated, and compound 4k treated).

human CB2 receptors, sequence (P34972 whole entry): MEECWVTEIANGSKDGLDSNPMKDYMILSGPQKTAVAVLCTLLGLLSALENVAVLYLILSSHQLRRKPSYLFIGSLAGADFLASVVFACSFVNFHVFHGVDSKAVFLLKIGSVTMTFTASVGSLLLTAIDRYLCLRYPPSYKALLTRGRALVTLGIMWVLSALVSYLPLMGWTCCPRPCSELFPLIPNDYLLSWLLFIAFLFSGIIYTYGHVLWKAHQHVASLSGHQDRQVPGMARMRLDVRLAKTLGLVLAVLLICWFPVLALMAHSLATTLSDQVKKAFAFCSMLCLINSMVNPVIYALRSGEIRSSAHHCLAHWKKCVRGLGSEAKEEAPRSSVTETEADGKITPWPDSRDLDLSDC
human CB1 receptors, sequence (P21554 whole entry): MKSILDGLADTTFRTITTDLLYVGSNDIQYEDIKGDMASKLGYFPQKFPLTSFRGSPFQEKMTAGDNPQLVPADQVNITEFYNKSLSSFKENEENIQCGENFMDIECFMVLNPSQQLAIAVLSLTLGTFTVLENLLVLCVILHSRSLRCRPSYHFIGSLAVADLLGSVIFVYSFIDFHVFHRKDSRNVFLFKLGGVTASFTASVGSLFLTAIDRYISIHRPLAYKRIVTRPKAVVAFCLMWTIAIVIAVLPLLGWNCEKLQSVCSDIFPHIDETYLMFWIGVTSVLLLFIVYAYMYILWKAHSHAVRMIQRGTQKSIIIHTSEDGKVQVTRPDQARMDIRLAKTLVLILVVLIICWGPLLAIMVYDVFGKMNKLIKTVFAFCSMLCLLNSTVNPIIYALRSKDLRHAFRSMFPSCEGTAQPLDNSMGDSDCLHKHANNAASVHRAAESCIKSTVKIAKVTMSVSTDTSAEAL

| Compound | Displacement of [3H]CP-55,940 from CB1 (human CB1 receptors) [%] | Displacement of [3H]CP-55,940 from CB2 (human CB2 receptors) [%] | writhing over 30 minutes (mice [1]) | place preference (rewarding effect, abuse liability) (mice [2]) |
| --- | --- | --- | --- | --- |
| (S,E)-11-[(Benzo[b]thiophen-3-ylmethylene)hydrazono]-7-bromo-pyrrolo[2,1-c][1,4]Benzodiazepine [Compound 4j] | 66.81 | 65.24 | – | – |
| (S,E)-11-[2-(Benzo[b]thiophenylmethylene)hydrazono]-pyrrolo[2,1-c][1,4]Benzodiazepine [Compound 4h] | 36.88 | 61.05 | – | – |
| O=C1c2ccccc2N/C(=N/N=C/c2ccc[nH]2)[C@@H]2CCCN12 [Compound 4a] | −3.09 | −12.50 | – | – |
| Cc1c(/C=N/N=C2/Nc3ccccc3C(=O)N3CCC[C@@H]23)sc2ccccc12 [Compound 4l] | 77.17 | 51.73 | – | – |
| (S,E)-11-[(Thiazol-5-ylmethylene)hydrazono]-pyrrolo[2,1-c][1,4] Benzodiazepine [Compound 4c] | 0.25 | 3.06 | – | – |
| Cc1ncc(/C=N/N=C2/Nc3ccccc3C(=O)N3CCC[C@@H]23)s1 [Compound 4d] | −27.99 | −33.65 | – | – |
| COc1ccc2c3c1O[C@H]1C(=O)CC[C@@]4(O)[C@@H](C2)N(C)CC[C@]314 [oxycodone, reference compound] | – | – | attenuate writhing | clear place preference |
| Cc1ncsc1/C=N/N=C1/Nc2ccccc2C(=O)N2CCC[C@@H]12 [Compound 4e] | 21.88 | 19.86 | – | – |
| Cn1ccnc1/C=N/N=C1/Nc2ccccc2C(=O)N2CCC[C@@H]12 [Compound 4b] | −13.99 | −14.48 | – | – |
